According to US12377100B2 (GILEAD SCIENCES, INC., priority 2015, dated 2025):

Tests used:
Type in all cases: cell-based
Details in all cases: human PBMCs, 24 hours incubation
IFNα = assay: PBMC cytokine profiling assay, IFNα induction
Experimental: (§1) Certain compounds disclosed herein we tested according to the procedure described below. Additionally, certain reference compounds were prepared and tested along with the compounds of the present disclosure.
(§2) Compounds were dissolved and stored in DMSO (Sigma-Aldrich, St. Louis, MO) at 10 mM concentration.
(§3) Cryopreserved human PBMCs isolated from healthy donors were purchased from StemCell Technologies (Vancouver, Canada). Cell culture medium used was RPMI with L-Glutamine (Mediatech, Manassas, VA) supplemented with 10% fetal bovine serum (Hyclone, GE Healthcare, Logan, UT) and Penicillin-Streptomycin (Mediatech). Human TNFα, IL12p40, and IFNα2a 384-well Assay capture plates, standards, buffers and processing reagents were obtained from MesoScale Discovery Technologies (MSD; Rockville, MD).
(§4) Cryopreserved human PBMCs (1×10e8 cells/ml) were thawed at 37° C. and resuspended in 25 mL warm cell culture medium. The cells were pelleted at 200×g (Beckman Avanti J-E) for 5 min and resuspended in 20 mL of fresh culture media. Cells were counted using a Cellometer (Nexcelcom Bioscience), adjusted to 2×10e6 cells, and incubated for 2 hours in an incubator set at 37° C., 5% CO2 to recover from cryopreservation. Compounds were serially diluted in DMSO at half-log steps to generate a 10-point dose range. Using a Bravo pipette equipped with a 384 well head (Agilent), 0.4 μL of compound was transferred to each well of a 384 well black, clear bottom plate (Greiner Bio-One, Germany) containing 30 μL of cell culture medium. Recovered PBMCs were then dispensed into the assay plate at 50 μL per well (100k cells/well) using the MicroFlow multichannel dispenser (Biotek). Final DMSO concentration was 0.5%. DMSO was used as the negative control. The plates were incubated for 24 hours at 37° C. PBMCs in the assay plate were pelleted by centrifugation (Beckman Avanti J-E) at 200×g for 5 min.
(§5) Using a Biomek FX 384 well pipetting station (Beckman), conditioned culture medium (CCM) from the assay plate was transferred to MSD capture plates customized for each cytokine. For IFNα and IL12-p40 detection, 25 μL and 20 μL of CCM were added directly to each capture plate, respectively. For TNFα detection, CCM was diluted 1:9 in fresh culture medium, and 20 μL of diluted CCM was used. Serially diluted calibration standards for each cytokine were used to generate standard curves and establish assay linearity. The plates were sealed and incubated overnight at 4° C. in a plate shaker (Titer Plate) set at 200 rpm. On the following day, antibodies specific for each cytokine were diluted 1:50 in MSD Diluent 100 antibody dilution buffer. Diluted antibodies were added to corresponding capture plates at 10 μL/well, and incubated at RT for 1-2 hrs in the shaker. The plates were washed with PBST buffer (3×, 60 μl/well) using a Biotek Multiflow plate washer. MSD Read Buffer diluted to 2× in deionized water and 35 μL/well was added via Biomek FX instrument. The plates were read immediately in a MSD6000 reader. Data were normalized to positive and negative controls in each assay plate. AC50 values represent compound concentrations at half-maximal effect based on normalized percent activation and calculated by non-linear regression using Pipeline Pilot software (Accelrys, San Diego, CA).

IL12p40 = assay: PBMC cytokine profiling assay, IL12-p40 induction
Experimental: as §1, §2, §3, §4, §5

TNFα = assay: PBMC cytokine profiling assay, TNFα induction
Experimental: as §1, §2, §3, §4, §5

Row | Compound | AC50 (IFNα; Homo sapiens, PBMC, 24 h) | AC50 (IL12p40; Homo sapiens, PBMC, 24 h) | AC50 (TNFα; Homo sapiens, PBMC, 24 h) | AC50 (IFNα) | AC50 (IL12p40) | AC50 (TNFα)
1 | CCCC[C@@H](Nc1nc(N)nc2cccnc12)c1nnc[nH]1 [Example 56, (R)—N^4-(1-(4H-1,2,4-triazol-3-yl)pentyl)pyrido[3,2-d]pyrimidine-2,4-diamine] | 1.9 µM | 3.4 µM | 3.6 µM |  |  | 
2 | CCCCC[C@](C)(CNC(C)=O)Nc1nc(N)nc2cc(Cl)cnc12 [Example 117, (R)—N-(2-((2-amino-7-chloropyrido[3,2-d]pyrimidin-4-yl)amino)-2-methylheptyl)acetamide] | > 50 µM | 0.33 µM | 0.37 µM |  |  | 
3 | CCCCNc1nc(N)nc2cc(Cl)cnc12 [Example 41, N^4-butyl-7-chloropyrido[3,2-d]pyrimidine-2,4-diamine] | 13 µM | 9.1 µM | 11 µM |  |  | 
4 | CCCCC[C@](C)(CO)Nc1nc(N)nc2cc(F)cnc12 [Example 111, (R)-2-((2-amino-7-fluoropyrido[3,2-d]pyrimidin-4-yl)amino)-2-methylheptan-1-ol] |  | 0.47 µM | 0.61 µM | 19.8 µM |  | 
5 | COc1cnc2c(NC(C)(C)C)nc(N)nc2c1 [Example 113, N^4-(tert-butyl)-7-methoxypyrido[3,2-d]pyrimidine-2,4-diamine] | > 50 µM | 13.6 µM | 12.5 µM |  |  | 
6 | CCCC[C@H](CN)Nc1nc(N)nc2cccnc12 [Example 50, (R)—N^4-(1-aminohexan-2-yl)pyrido[3,2-d]pyrimidine-2,4-diamine] | > 50 µM | 23.1 µM | 26.9 µM |  |  | 
7 | C=C(C)CC[C@H](CO)Nc1nc(N)nc2cccnc12 [Example 77, (R)-2-((2-aminopyrido[3,2-d]pyrimidin-4-yl)amino)-5-methylhex-5-en-1-ol] | 43.6 µM | 43.6 µM | 43.6 µM |  |  | 
8 | Nc1nc(N[C@H](CO)CC2CC2)c2ncccc2n1 [Example 4B, (S)-2-((2-aminopyrido[3,2-d]pyrimidin-4-yl)amino)-3-cyclopropylpropan-1-ol] | 5.9 µM | 5.4 µM | 9.1 µM |  |  | 
9 | CCCCC[C@](C)(CNC(C)=O)Nc1nc(N)nc2cccnc12 [Example 116, (R)—N-(2-((2-aminopyrido[3,2-d]pyrimidin-4-yl)amino)-2-methylheptyl)acetamide] | > 50 µM | 0.11 µM | 0.036 µM |  |  | 
10 | CCCC[C@H](CNS(C)(=O)=O)Nc1nc(N)nc2cccnc12 [Example 52, (R)—N-(2-((2-aminopyrido[3,2-d]pyrimidin-4-yl)amino)hexyl)methanesulfonamide] | > 50 µM | 3.6 µM | 3.2 µM |  |  | 
11 | C=CCC[C@H](CO)Nc1nc(N)nc2cccnc12 [Example 72, (R)-2-((2-aminopyrido[3,2-d]pyrimidin-4-yl)amino)hex-5-en-1-ol] | > 50 µM | 7 µM | 7.2 µM |  |  | 
12 | CCC[C@H](Nc1nc(N)nc2cccnc12)C(=O)NCc1ccccn1 [Example 37, (S)-2-((2-aminopyrido[3,2-d]pyrimidin-4-yl)amino)-N-(pyridin-2-ylmethyl)pentanamide] | > 50 µM | > 50 µM | > 50 µM |  |  | 
13 | CCCCC[C@](C)(CO)Nc1nc(N)nc2cc(F)cnc12 [Example 112, (R)-2-((2-amino-7-fluoropyrido[3,2-d]pyrimidin-4-yl)amino)-2-methylheptan-1-ol] |  |  |  | > 50 µM | 0.33 µM | 0.36 µM
14 | Nc1nc(N[C@@H](CO)CCCC(F)(F)F)c2ncccc2n1 [Example 99, (R)-2-((2-aminopyrido[3,2-d]pyrimidin-4-yl)amino)-6,6,6-trifluorohexan-1-ol] | > 50 µM | 3.6 µM | 3.4 µM |  |  | 
15 | CCCC[C@@](C)(CO)Nc1nc(N)nc2cccnc12 [Example 60, (S)-2-((2-aminopyrido[3,2-d]pyrimidin-4-yl)amino)-2-methylhexan-1-ol] | 7.9 µM | 2.3 µM | 2.6 µM |  |  | 
16 | CCCC[C@H](CO)Nc1nc(N)nc2c(C)ccnc12 [Example 57, (R)-2-((2-amino-8-methylpyrido[3,2-d]pyrimidin-4-yl)amino)hexan-1-ol] | > 50 µM | 9.7 µM | 11 µM |  |  | 

Row | Compound | AC50 (IFNα; Homo sapiens, PBMC, 24 h) | AC50 (IL12p40; Homo sapiens, PBMC, 24 h) | AC50 (TNFα; Homo sapiens, PBMC, 24 h) | AC50 (IFNα) | AC50 (IL12p40) | AC50 (TNFα)
17 | CCC[C@H](Nc1nc(N)nc2cccnc12)C(N)=O [Example 30B, (S)-2-((2-aminopyrido[3,2-d]pyrimidin-4-yl)amino)pentanamide] | > 50 µM | 8.6 µM | 10.6 µM |  |  | 
18 | CCC(F)(F)C[C@H](CO)Nc1nc(N)nc2cccnc12 [Example 79, (R)-2-((2-aminopyrido[3,2-d]pyrimidin-4-yl)amino)-4,4-difluorohexan-1-ol] | > 50 µM | 11.5 µM | 9.1 µM |  |  | 
19 | Nc1nc(N[C@@H](CO)CCCCF)c2ncccc2n1 [Example 74, (R)-2-((2-aminopyrido[3,2-d]pyrimidin-4-yl)amino)-6-fluorohexan-1-ol] | > 50 µM | 9.6 µM | 9.1 µM |  |  | 
20 | CCCC[C@](C)(Nc1nc(N)nc2cccnc12)C(C)O (single isomer, unassigned) [Example 92] | > 50 µM | 4.7 µM | 4.3 µM |  |  | 
21 | C=CC[C@](C)(CO)Nc1nc(N)nc2cccnc12 [Example 81, (R)-2-((2-aminopyrido[3,2-d]pyrimidin-4-yl)amino)-2-methylpent-4-en-1-ol] | > 50 µM | 7.8 µM | 7.6 µM |  |  | 
22 | CCCC[C@H](CO)Nc1nc(N)nc2cc(O)cnc12 [Example 68, (R)-2-amino-4-((1-hydroxyhexan-2-yl)amino)pyrido[3,2-d]pyrimidin-7-ol] | > 50 µM | 14.2 µM | 11.1 µM |  |  | 
23 | CCC[C@](C)(CO)Nc1nc(N)nc2cccnc12 [Example 80, (R)-2-((2-aminopyrido[3,2-d]pyrimidin-4-yl)amino)-2-methylpentan-1-ol] | > 50 µM | 2.4 µM | 2.7 µM |  |  | 
24 | CCC[C@@H](CO)Nc1nc(N)nc2c(C)ccnc12 [Example 26E, (S)-2-((2-amino-8-methylpyrido[3,2-d]pyrimidin-4-yl)amino)pentan-1-ol] | 13.5 µM | 1.7 µM | 2.3 µM |  |  | 
25 | CCC[C@@H](CO)Nc1nc(N)nc2cc(Cl)cnc12 [Example 19E, (S)-2-((2-amino-7-chloropyrido[3,2-d]pyrimidin-4-yl)amino)pentan-1-ol] | 21.6 µM | 2.5 µM | 3.3 µM |  |  | 
26 | CCC[C@H](Nc1nc(N)nc2cccnc12)C(=O)NC [Example 31, (S)-2-((2-aminopyrido[3,2-d]pyrimidin-4-yl)amino)-N-methylpentanamide] | 32.9 µM | 4.7 µM | 4.7 µM |  |  | 
27 | CCCC[C@@H](CO)Nc1nc(N)nc2c(C)ccnc12 [Example 58, (S)-2-((2-amino-8-methylpyrido[3,2-d]pyrimidin-4-yl)amino)hexan-1-ol] | 4.1 µM | 3.8 µM | 3.9 µM |  |  | 
28 | CCCCNc1nc(N)nc2ccc(C(F)(F)F)nc12 [Example 32, N^4-butyl-6-(trifluoromethyl)pyrido[3,2-d]pyrimidine-2,4-diamine] | > 50 µM | > 50 µM | > 50 µM |  |  | 
29 | C=CC[C@H](CO)Nc1nc(N)nc2cccnc12 [Example 108, (R)-2-((2-aminopyrido[3,2-d]pyrimidin-4-yl)amino)pent-4-en-1-ol] | > 50 µM | 22 µM | 38.7 µM |  |  | 
30 | Nc1nc(NCCO)c2ncccc2n1 [Example 12, 2-((2-aminopyrido[3,2-d]pyrimidin-4-yl)amino)ethanol] | > 50 µM | > 50 µM | > 50 µM |  |  | 
31 | CCCCC(Nc1nc(N)nc2cccnc12)C(C)O (stereo not drawn) [Example 103, 3-((2-aminopyrido[3,2-d]pyrimidin-4-yl)amino)heptan-2-ol] |  | 2.6 µM | 3.3 µM | 10.3 µM |  | 
32 | CCC[C@H](Nc1nc(N)nc2cccnc12)C(=O)NCCO [Example 34, (S)-2-((2-aminopyrido[3,2-d]pyrimidin-4-yl)amino)-N-(2-hydroxyethyl)pentanamide] | > 50 µM | 10.9 µM | 12.2 µM |  |  | 
